Format in all cases: in vivo
Experiment [1] deals with Ctenocephalides felis. Briefly: Ctenocephalides felis in vitro contact test with adult cat fleas. The following applies: application rate 5 μg/cm^2 (=500 g/ha); after 48 h. The essentials: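 Glass tubes coated with acetone solutions of compound (900 ppm giving 5 μg/cm^2), dried, then held 5-10 adult cat fleas at room temperature and ambient humidity. After 48 h, dead or moribund fleas were scored; efficacy expressed as percent affected.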

Another experiment deals with Rhipicephalus sanguineus. The experiment in a line: Rhipicephalus sanguineus in vitro contact test with adult brown dog ticks. The following applies: application rate 5 μg/cm^2 (=500 g/ha); after 48 h. The essentials:
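Glass tubes coated with compound in acetone (900 ppm solution giving 5 μg/cm^2), then 5-10 adult ticks held in the dark at room temperature and ambient humidity. At 48 h, ticks placed on a 45-50° C. hotplate for up to 5 min; motionless or uncoordinated ones scored dead/moribund, giving % efficacy.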

Experiment [2] concerns cattle ticks (Boophilus microplus) Parkhurst strain, SP-resistant. The experiment in a line: Boophilus microplus dip test. To be noted: application rate 100 ppm, after 7 days. The protocol: Boophilus microplus—Dip Test
Test animals: cattle ticks (Boophilus microplus) Parkhurst strain, SP-resistant
(§1) Solvent: dimethyl sulfoxide
10 mg of active compound are dissolved in 0.5 ml of dimethyl sulfoxide. To produce a suitable formulation, the active compound solution is diluted with water to the concentration desired in each case.
This active compound formulation is pipetted into tubes. 8-10 engorged adult female cattle ticks (Boophilus microplus) are transferred into a further tube with holes. The tube is immersed into the active compound formulation, and all the ticks are completely wetted. After the liquid has run out, the ticks are transferred on filter disks into plastic dishes and stored in a climate-controlled room.
Efficacy is assessed after 7 days by laying of fertile eggs. Eggs which are not visibly fertile are stored in a climate-controlled cabinet until the larvae hatch after about 42 days. An efficacy of 100% means that none of the ticks has laid any fertile eggs; 0% means that all the eggs are fertile.

Another experiment deals with Boophilus microplus. Briefly: Boophilus microplus injection test. The following applies: for efficacy (laying of fertile eggs): application rate 20 μg/animal, after 7 days; for pest or weed control at 0.02 mg: Rhipicephalus microplus, 168 h, read-out: efficacy (laying of fertile eggs), application rate 20 μg/animal, after 7 days. An outline of the steps: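 Compound dissolved in DMSO; 1 μl injected into the abdomen of engorged adult female ticks, five per group, kept in climate-controlled room. Efficacy scored after 7 days from fertile egg laying (100% = no fertile eggs; 0% = all fertile), with unclear eggs held ~42 days until hatching.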

The subject of experiment [3] is Ctenocephalides felis. The experiment in a line: Ctenocephalides felis oral test. To be noted: application rate 100 ppm in citrated cattle blood; after 2 days. As for the experimental part: Ctenocephalides felis—Oral Test
as §1
To produce a suitable active compound formulation, 10 mg of active compound are mixed with 0.5 ml of dimethyl sulfoxide. Dilution with citrated cattle blood gives the desired concentration.
About 20 unfed adult cat fleas (Ctenocephalides felis) are placed into a chamber which is closed at the top and bottom with gauze. A metal cylinder whose bottom end is closed with parafilm is placed onto the chamber. The cylinder contains the blood/active compound formulation, which can be imbibed by the fleas through the parafilm membrane.
After 2 days, the kill in % is determined. 100% means that all of the fleas have been killed; 0% means that none of the fleas have been killed.

A further experiment deals with Lucilia cuprina. Briefly: Lucilia cuprina test. The following applies: application rate 100 ppm; L1 larvae; after 2 days. An outline of the steps: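 About 20 first-instar larvae were placed in vessels of minced horsemeat with compound at the desired concentration. Compound was dissolved in DMSO and diluted in water. Percent kill scored after 2 days.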
A further experiment deals with Phaedon cochleariae. The experiment in a line: Phaedon cochleariae spray test. The following applies: for efficacy: application rate 500 g/ha, after 7 days; for pest or weed control at 500 g/ha: Phaedon cochleariae, 168 h, read-out: efficacy. The essentials:
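Chinese cabbage leaf discs sprayed with compound formulated in acetone/DMF and water with 1000 ppm emulsifier, then infested with mustard beetle larvae once dry. Percent larval kill scored after 7 days (100% = all dead, 0% = none).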

In the next experiment the test system is Spodoptera frugiperda. The experiment in a line: Spodoptera frugiperda spray test. The following applies: for efficacy: application rate 500 g/ha, after 7 days; for pest or weed control at 500 g/ha: Spodoptera frugiperda, 168 h, read-out: efficacy. An outline of the steps:
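Maize leaf discs sprayed with compound formulated in acetone/dimethylformamide and diluted in water with 1000 ppm alkylaryl polyglycol ether emulsifier. Once dry, discs are infested with fall armyworm caterpillars. Efficacy in % read after 7 days: 100% all caterpillars killed, 0% none killed.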

The test system of a further experiment is Tetranychus urticae. Briefly: Tetranychus urticae spray test, OP-resistant. To be noted: application rate 500 g/ha; after 6 days. An outline of the steps: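 Bean leaf discs carrying all stages of OP-resistant Tetranychus urticae were sprayed with compound in acetone/dimethylformamide diluted in water containing alkylaryl polyglycol ether emulsifier (1000 ppm). Mortality scored after 6 days as % efficacy (100% = all mites killed).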

Experiment [4] concerns Anopheles gambiae strain RSPH (homozygot kdr). The experiment in a line: Anopheles test (ANPHGB surface treatment). To be noted: read-out: efficacy (mortality in %). The protocol: Anopheles Test (ANPHGB Surface Treatment)
(§2) Solvent: acetone+2000 ppm rapeseed oil methyl ester (RME)
To produce an appropriate active compound formulation, the active compound is dissolved in the solvent (2 mg/ml). The active compound formulation is pipetted onto a glazed tile and, after it has dried off, adult mosquitoes of the species Anopheles gambiae strain RSPH (homozygot kdr) are placed onto the treated tile. The exposure time is 30 minutes.
(§3) 24 hours after contact with the treated surface, mortality in % is determined. 100% means that all mosquitoes have been killed; 0% means that none of the mosquitoes have been killed.

The subject of experiment [5] is Anopheles funestus strain FUMOZ-R. Briefly: Anopheles test (ANPHFU surface treatment). To be noted: read-out: efficacy (mortality in %). The protocol: Anopheles Test (ANPHFU Surface Treatment)
as §2
To produce an appropriate active compound formulation, the active compound is dissolved in the solvent (2 mg/ml). The active compound formulation is pipetted onto a glazed tile and, after it has dried off, adult mosquitoes of the species Anopheles funestus strain FUMOZ-R (Hunt et al., Med Vet Entomol. 2005 Sep.; 19 (3):271-5) are placed onto the treated tile. The exposure time is 30 minutes.
as §3

Experiment [6] relates to Aedes aegypti strain MONHEIM. The experiment in a line: Aedes test (AEDSAE surface treatment). To be noted: read-out: efficacy (mortality in %). The protocol: Aedes Test (AEDSAE Surface Treatment)
as §2
To produce an appropriate active compound formulation, the active compound is dissolved in the solvent (2 mg/ml). The active compound formulation is pipetted onto a glazed tile and, after it has dried off, adult mosquitoes of the species Aedes aegypti strain MONHEIM are placed onto the treated tile. The exposure time is 30 minutes. 24 hours after contact with the treated surface, mortality in % is determined. 100% means that all mosquitoes have been killed; 0% means that none of the mosquitoes have been killed.

The subject of the next experiment is Myzus persicae. Briefly: Myzus persicae spray test. The following applies: application rate 100 g/ha; after 5 days. The protocol:
Myzus persicae—Spray Test
Solvent: 78 parts by weight of acetone • • 1.5 parts by weight of dimethylformamide
Emulsifier: alkylaryl polyglycol ether
To produce a suitable active compound formulation, 1 part by weight of active compound is dissolved with the specified parts by weight of solvent and made up to the desired concentration with water containing an emulsifier concentration of 1000 ppm. To produce further test concentrations, the formulation is diluted with emulsifier-containing water.
Discs of Chinese cabbage leaves (Brassica pekinensis) infested by all stages of the green peach aphid (Myzus persicae) are sprayed with an active compound formulation of the desired concentration.
After 5 days, the efficacy in % is determined. 100% means that all the aphids have been killed; 0% means that no aphids have been killed.

Turning to `CON(C)CCOc1cnc(COc2ccc(F)c(-c3cccc(F)c3)c2)c(F)c1` [Example 55], the “efficacy (fleas dead or moribund)” value in the experiment with Ctenocephalides felis [1] is given as 100%. Also, the “efficacy (ticks dead or moribund)” value in the experiment on Rhipicephalus sanguineus was 100%. The “efficacy (laying of fertile eggs)” value in experiment [2] was 90%; with Boophilus microplus, 100%. The “efficacy (kill in %)” value came to 90% with Ctenocephalides felis [3] and 100% in the experiment on Lucilia cuprina. Besides, the values for the efficacy in the experiment on Phaedon cochleariae, in the experiment on Spodoptera frugiperda and with Tetranychus urticae were 83%, 100% and 100%, respectively.

For the compound `CON(C)CCOc1cnc(COc2ccc(Cl)c3ccccc23)nc1` [Example 99, 2-[(2-{[(4-chloro-1-naphthyl)oxy]methyl}pyrimidin-5-yl)oxy]-N-methoxy-N-methylethanamine], the “efficacy (fleas dead or moribund)” value with Ctenocephalides felis [1] was determined as 100%. In addition, in the experiment with Rhipicephalus sanguineus, the “efficacy (ticks dead or moribund)” value worked out at 100%. Also, in experiment [2], the “efficacy (laying of fertile eggs)” value was 100%. In the experiment with Boophilus microplus, the pest or weed control at 0.02 mg was 100%. In addition, the “efficacy (kill in %)” value in the experiment with Lucilia cuprina is 100%. Further, the pest or weed control at 500 g/ha with Phaedon cochleariae and in the experiment on Spodoptera frugiperda was 100% in each case. The mortality at 20 mg/m2 in experiment [4], in experiment [5] and in experiment [6] was 80 to 100% each time.

Take `CON(C)CCOc1cnc(COc2ccc3oc4ccccc4c3c2)c(C)c1` [Example 30, 2-({6-[(dibenzo[b,d]furan-2-yloxy)methyl]-5-methylpyridin-3-yl}oxy)-N-methoxy-N-methylethanamine]: the pest or weed control at 0.02 mg in the experiment with Boophilus microplus worked out at 100%. Besides, the pest or weed control at 500 g/ha in the experiment on Phaedon cochleariae came to 83%. Moreover, in the experiment on Tetranychus urticae, the efficacy is on record as 100%. Besides, the mortality at 20 mg/m2 in experiment [4], in experiment [5] and in experiment [6] was 80 to 100% in each case.

Take `CCOc1cc(OCc2ncc(OCCN(C)OC)cc2F)ccc1Cl` [Example 54]: in the experiment on Ctenocephalides felis [1], the “efficacy (fleas dead or moribund)” value was 100%. Also, in the experiment on Rhipicephalus sanguineus, the “efficacy (ticks dead or moribund)” value was determined as 100%. In addition, the “efficacy (laying of fertile eggs)” value (in [2]; in the experiment on Boophilus microplus) was 100% in each case. Also, the “efficacy (kill in %)” value with Lucilia cuprina was found to be 100%. The efficacy in the experiment with Phaedon cochleariae, in the experiment with Spodoptera frugiperda and in the experiment with Tetranychus urticae was 100% each time.

Turning to `COc1cc(OCc2ncc(OCCN(C)OC)cc2F)ccc1Br` [Example 86], the “efficacy (fleas dead or moribund)” value in the experiment with Ctenocephalides felis [1] was 100%. Moreover, the “efficacy (ticks dead or moribund)” value in the experiment with Rhipicephalus sanguineus amounted to 100%. Also, the “efficacy (laying of fertile eggs)” value (in experiment [2]; in the experiment on Boophilus microplus) was 100% in each case. The efficacy in the experiment on Spodoptera frugiperda is listed as 83%.

For the compound `COc1cc(OCc2ncc(OCCN(C)OC)cc2F)ccc1Cl` [Example 58], the “efficacy (laying of fertile eggs)” value in experiment [2] worked out at 95%; in the experiment on Boophilus microplus, 100%. Moreover, the efficacy in the experiment with Phaedon cochleariae, with Spodoptera frugiperda and in the experiment on Tetranychus urticae was 100% throughout.

For the compound `CON(C)CCOc1ccc(COc2ccc(Cl)c3ccccc23)cn1` [Example 2, 2-[(5-{[(4-chloro-1-naphthyl)oxy]methyl}pyridin-2-yl)oxy]-N-methoxy-N-methylethanamine], the “efficacy (fleas dead or moribund)” value in the experiment with Ctenocephalides felis [1] is listed as 100%. The “efficacy (ticks dead or moribund)” value in the experiment on Rhipicephalus sanguineus is 100%. Moreover, the pest or weed control at 0.02 mg in the experiment with Boophilus microplus worked out at 100%. Moreover, the “efficacy (kill in %)” value in the experiment with Ctenocephalides felis [3] stood at 80%; in the experiment on Lucilia cuprina, 100%. The pest or weed control at 500 g/ha in the experiment on Phaedon cochleariae and in the experiment on Spodoptera frugiperda was 100% throughout. For the same compound, the efficacy in the experiment with Tetranychus urticae is listed as 90%. Besides, the mortality at 20 mg/m2 in [4], in experiment [5] and in [6] was 80 to 100% each time. Moreover, the mortality at 100 mg/m2 in experiment [4], in experiment [5] and in experiment [6] was 80 to 100% in each case.

As for `CC(C)N(CCOc1cnc(COc2cccc3c(Cl)c(Cl)ccc23)c(F)c1)C(C)C` [Example 39], the “efficacy (fleas dead or moribund)” value with Ctenocephalides felis [1] is on record as 100%. In addition, the “efficacy (laying of fertile eggs)” value in the experiment on Boophilus microplus was 90%. Besides, the efficacy is 90% in the experiment with Myzus persicae, 100% in the experiment on Phaedon cochleariae and 100% in the experiment with Spodoptera frugiperda.

For the compound `CON(C)CCOc1ccc(COc2cccc3c(Cl)c(Cl)ccc23)nc1` [Example 16], in the experiment on Ctenocephalides felis [1], the “efficacy (fleas dead or moribund)” value is 100%. Moreover, in the experiment with Rhipicephalus sanguineus, the “efficacy (ticks dead or moribund)” value was found to be 100%. Further, the “efficacy (laying of fertile eggs)” value in experiment [2] amounted to 95%; in the experiment with Boophilus microplus it was 100%. Moreover, the “efficacy (kill in %)” value with Lucilia cuprina is 100%. Besides, the efficacy with Phaedon cochleariae and in the experiment with Spodoptera frugiperda was 83% throughout.

Take `CON(C)CCOc1cnc(COc2ccc(Cl)c3ccccc23)c(F)c1` [Example 19]: the “efficacy (fleas dead or moribund)” value in the experiment with Ctenocephalides felis [1] came to 100%. Also, in the experiment on Rhipicephalus sanguineus, the “efficacy (ticks dead or moribund)” value is reported as 100%. Besides, the “efficacy (laying of fertile eggs)” value (in experiment [2]; in the experiment on Boophilus microplus) was 100% each time. In addition, the “efficacy (kill in %)” value in the experiment with Ctenocephalides felis [3] is 80%; in the experiment with Lucilia cuprina, 98%. Also, the efficacy in the experiment on Phaedon cochleariae and with Spodoptera frugiperda was 100% in each case.

Consider `CON(C)CCOc1cnc(COc2ccc3sc4ccccc4c3c2)c(F)c1` [Example 23], for which the “efficacy (fleas dead or moribund)” value with Ctenocephalides felis [1] turned out to be 100%. In addition, the “efficacy (ticks dead or moribund)” value in the experiment with Rhipicephalus sanguineus came to 100%. The “efficacy (laying of fertile eggs)” value in experiment [2] came out at 80%; in the experiment on Boophilus microplus, 100%. In the experiment with Lucilia cuprina, the “efficacy (kill in %)” value was found to be 100%. Besides, the efficacy with Phaedon cochleariae came out at 100%; in the experiment on Spodoptera frugiperda it was 100%; in the experiment on Tetranychus urticae, 90%.

(Values after US11827616B2, “Heterocyclic compounds as pesticides” (Discovery Purchaser Corporation, priority 2018, dated 2023).)
